Data from patent US20250262262A1, “a-ACID AND/OR B-ACID BASED COPOSITIONS FROM HUMULUS FOR USE IN A HUMAN AND/OR VETERINARY APPLICATION” (Orotech NV, priority 2022, published 2025).

Tested on: Histomonas meleagridis
Assay: Growth and viability of in vitro cultivated Histomonas meleagridis
Assay type: cell-based
Details: for Histomonas meleagridis cells counted: extrudate corresponding to 200 μg tetra-hydro-iso-α-acid/ml, dimetridazole 400 μg/ml
Description: The effect of a tetra-hydro-iso-α-acids milled extrudate on the growth of Histomonas meleagridis in vitro was investigated. Therefore, a milled extrudate of tetra-hydro-iso-α-acids (corresponding to an amount of 200 μg tetra-hydro-iso-α-acid/ml), a positive control (dimetridazole, concentration of 400 μg/ml) and a negative control (distilled water without addition of any substance) were used. Histomonas meleagridis cells were counted before and after 24, 48 and 72 hours of incubation.

Cc1ncc([N+](=O)[O-])n1C [Dimetridazole, dimetridazole] was tested, and the “Histomonas meleagridis cells counted” value (0 h (before incubation)) was 1 × 10^5, the “Histomonas meleagridis cells counted” value (24 h of incubation) was 0 and the “Histomonas meleagridis cells counted” value (48 h of incubation) was 0. The “Histomonas meleagridis cells counted” value (72 h of incubation) was 0 and the “Effect on Histomonas meleagridis cells (in words)” value (in vitro, versus negative control) was “total reduction”.
